# From the supplement of paper PMC10307832
# How the values were obtained:
# Assay in all cases: relative viability (nuclei count vs DMSO), 5 days (fraction); higher = more cells survive
# 17-AAG + Luminespib = compound: C=CCNC1=C2C[C@@H](C)C[C@H](OC)[C@H](O)[C@@H](C)/C=C(\C)[C@H](OC(N)=O)[C@@H](OC)/C=C\C=C(/C)C(=O)NC(=CC1=O)C2=O [17-AAG] + CCNC(=O)c1noc(-c2cc(C(C)C)c(O)cc2O)c1-c1ccc(CN2CCOCC2)cc1 [Luminespib] (partner 0.01 µM)
# Procedure, shortened: (§1)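 Lung cancer cell lines in 1536-well plates got either a single drug or a fixed anchor-drug dose together with five library-drug doses (not always all listed) in √10 steps, by pin tool, on the day after seeding. Nuclei were counted after 5 days, and relative viability is the treated-to-vehicle ratio of nuclei counts. Values are medians of duplicate plates.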
# 17-AAG + Dasatinib = compound: C=CCNC1=C2C[C@@H](C)C[C@H](OC)[C@H](O)[C@@H](C)/C=C(\C)[C@H](OC(N)=O)[C@@H](OC)/C=C\C=C(/C)C(=O)NC(=CC1=O)C2=O [17-AAG] + Cc1nc(Nc2ncc(C(=O)Nc3c(C)cccc3Cl)s2)cc(N2CCN(CCO)CC2)n1 [Dasatinib] (partner 0.075 µM)
# Procedure, shortened: as §1
# 17-AAG + Bortezomib = compound: C=CCNC1=C2C[C@@H](C)C[C@H](OC)[C@H](O)[C@@H](C)/C=C(\C)[C@H](OC(N)=O)[C@@H](OC)/C=C\C=C(/C)C(=O)NC(=CC1=O)C2=O [17-AAG] + CC(C)C[C@H](NC(=O)[C@H](Cc1ccccc1)NC(=O)c1cnccn1)B(O)O [Bortezomib] (partner 0.002 µM)
# Procedure, shortened: as §1
# 17-AAG + Navitoclax = compound: C=CCNC1=C2C[C@@H](C)C[C@H](OC)[C@H](O)[C@@H](C)/C=C(\C)[C@H](OC(N)=O)[C@@H](OC)/C=C\C=C(/C)C(=O)NC(=CC1=O)C2=O [17-AAG] + CC1(C)CCC(c2ccc(Cl)cc2)=C(CN2CCN(c3ccc(C(=O)NS(=O)(=O)c4ccc(N[C@H](CCN5CCOCC5)CSc5ccccc5)c(S(=O)(=O)C(F)(F)F)c4)cc3)CC2)C1 [Navitoclax] (partner 0.5 µM)
# Procedure, shortened: as §1
Cell Line,relative viability (17-AAG + Luminespib; first compound 0.00128 µM),relative viability (17-AAG + Luminespib; first compound 0.004048 µM),relative viability (17-AAG + Luminespib; first compound 0.0128 µM),relative viability (17-AAG + Luminespib; first compound 0.04048 µM),relative viability (17-AAG + Luminespib; first compound 0.128 µM),relative viability (17-AAG + Dasatinib; first compound 0.00128 µM),relative viability (17-AAG + Dasatinib; first compound 0.004048 µM),relative viability (17-AAG + Dasatinib; first compound 0.0128 µM),relative viability (17-AAG + Dasatinib; first compound 0.04048 µM),relative viability (17-AAG + Dasatinib; first compound 0.128 µM),relative viability (17-AAG + Bortezomib; first compound 0.00128 µM),relative viability (17-AAG + Bortezomib; first compound 0.004048 µM),relative viability (17-AAG + Bortezomib; first compound 0.0128 µM),relative viability (17-AAG + Bortezomib; first compound 0.04048 µM),relative viability (17-AAG + Bortezomib; first compound 0.128 µM),relative viability (17-AAG + Navitoclax; first compound 0.00128 µM),relative viability (17-AAG + Navitoclax; first compound 0.004048 µM),relative viability (17-AAG + Navitoclax; first compound 0.0128 µM),relative viability (17-AAG + Navitoclax; first compound 0.04048 µM),relative viability (17-AAG + Navitoclax; first compound 0.128 µM)
NCI-H1437,1.09,0.818,0.631,0.206,0.19,0.39,0.447,0.226,0.143,0.0854,0.606,0.389,0.176,0.123,0.0811,1.11,0.939,0.936,0.162,0.132
NCI-H1650,0.195,0.194,0.228,0.214,0.215,0.267,0.147,0.167,0.199,0.148,0.217,0.219,0.181,0.224,0.197,1.19,0.782,0.407,0.181,0.171
NCI-H1651,0.884,0.774,0.394,0.213,0.186,0.486,0.415,0.206,0.186,0.111,0.859,0.928,0.872,0.89,0.425,1.05,0.882,1.01,0.214,0.148
NCI-H1666,1,0.86,0.474,0.296,0.342,0.783,0.718,0.309,0.35,0.295,0.78,0.687,0.244,0.228,0.171,0.958,0.699,0.277,0.314,0.236
NCI-H1734,0.197,0.18,0.167,0.143,0.16,0.482,0.445,0.356,0.176,0.105,0.917,0.897,0.734,0.269,0.145,0.871,0.811,0.756,0.24,0.114
NCI-H1755,0.479,0.444,0.364,0.273,0.223,0.478,0.401,0.324,0.213,0.118,0.966,0.9,0.817,0.391,0.189,1.01,1,0.957,0.8,0.315
NCI-H1792,0.351,0.418,0.255,0.268,0.213,0.761,0.75,0.611,0.493,0.31,0.912,0.807,0.839,0.802,0.137,0.592,0.675,0.523,0.477,0.115
NCI-H1915,0.682,0.659,0.548,0.418,0.0942,0.29,0.322,0.218,0.115,0.0794,0.846,1.02,0.85,0.884,0.118,0.763,0.754,0.797,0.771,0.409
NCI-H1975,0.198,0.175,0.14,0.176,0.139,0.315,0.247,0.121,0.104,0.0938,0.445,0.34,0.149,0.145,0.119,1.23,0.928,0.453,0.186,0.145
NCI-H1993,0.919,0.625,0.516,0.273,0.423,0.548,0.607,0.344,0.387,0.344,1.04,1.25,0.609,0.454,0.369,0.904,0.933,0.529,0.564,0.441
NCI-H2009,0.983,0.983,0.871,0.354,0.0842,0.313,0.298,0.304,0.229,0.0827,0.974,0.995,0.917,0.815,0.142,1.1,1.09,1.07,0.884,0.369
NCI-H2023,0.52,0.25,0.228,0.0785,0.0689,0.572,0.281,0.0632,0.0704,0.059,0.886,0.878,0.138,0.0901,0.0776,0.989,0.867,0.641,0.11,0.112
NCI-H2085,0.521,0.447,0.462,0.345,0.314,0.184,0.271,0.243,0.292,0.298,1.08,1.02,1.11,1.04,0.714,1.08,1.11,1.18,1.11,0.808
NCI-H2087,0.17,0.158,0.159,0.131,0.0988,0.872,0.49,0.0992,0.13,0.0882,0.85,0.674,0.377,0.215,0.137,0.96,0.754,0.284,0.202,0.195
NCI-H2126,0.681,0.499,0.261,0.243,0.292,0.596,0.515,0.202,0.22,0.243,1.09,1.1,0.993,1.06,0.255,0.864,0.845,0.878,0.796,0.381
